Results on 1 molecule are retold here after US20230346735A1, “Nutritional Composition Comprising Carnitine and Method for Treating or Preventing an Infection in a Mammal” (priority 2020, published 2023).

In this assay the test system is ACE-2. The assay can be described thus: ACE-2 surface protein in Calu-3 cells, flow cytometry. It is filed as cell-based, human. As to conditions: Calu-3, 100, 500 and 1000 µM, less than L-carnitine. As to the method: ACE-2 surface expression protein in Calu-3 cells was evaluated using FACS flow cytometry sorting. […] Cells were detached with PBS/EDTA at room temperature. FBS-containing growth media was added to cells to inactivate TE. Cells were spun for 5 min at […]. Supernatant was removed and cells were washed twice in flow buffer (PBS+0.2% FBS). Between 100,000-200,000 cells were stained for ACE-2 and BST2 (absent in Calu-3and used as a control) for 30 min on ice using goat anti-ACE-2 (R&D Systems; AF933) and PE-conjugated BST2 (BioLegend; Cat # 348406). Cells were washed once and stained with Alexa Fluor 647 donkey anti-goat for 30 min on ice. Cells were washed once, resuspended in PBS/EDTA and samples were acquired on a FACS LSR Fortessa cytometer (BD Bioscience). Data were analyzed using Flowjo (Version 10.1).
The testing was repeated with D-Carnitine as well. Cells were either stained for ACE2 using either anti-ACE2 Ab, anti-BST2 Ab or the combination or both followed by secondary Ab isotype. […] The table represents the fluorescence counts.

As for `C[N+](C)(C)C[C@@H](O)CC(=O)[O-]` [D-carnitine], the “ACE-2 surface protein levels” value is “decreased significantly”.
